In patent publication US11814375B2, “Heterocyclic compounds” (Hoffmann-La Roche Inc., priority 2019, dated 2023):
pIC50: −log10 of the molar value.

These compounds were tested against T1, MAGL (Homo sapiens, UniProt Q99685) (assay: 2-AG assay: MAGL inhibitory activity by hydrolysis of 2-arachidonoylglycerol to arachidonic acid, followed by mass spectrometry). Conditions: 8 μM 2-arachidonoylglycerol, 15 min preincubation and 30 min reaction at RT, arachidonic acid/d8-arachidonic acid ratio by MS.
T1 sequence (Q99685 1-303): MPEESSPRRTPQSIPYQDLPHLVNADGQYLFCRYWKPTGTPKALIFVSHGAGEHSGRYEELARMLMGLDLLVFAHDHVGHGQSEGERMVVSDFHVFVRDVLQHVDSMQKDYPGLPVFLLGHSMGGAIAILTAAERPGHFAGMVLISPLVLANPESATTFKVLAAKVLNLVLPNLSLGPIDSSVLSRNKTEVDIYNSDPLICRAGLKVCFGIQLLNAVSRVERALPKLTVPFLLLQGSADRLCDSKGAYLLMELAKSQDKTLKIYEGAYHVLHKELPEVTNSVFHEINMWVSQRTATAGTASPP
Format: biochemical
Method: Compounds of formula (I) were profiled for MAGL inhibitory activity by determining the enzymatic activity by following the hydrolysis of the natural substrate 2-arachidonoylglycerol (2-AG) resulting in arachidonic acid, which can be followed by mass spectrometry. This assay is hereinafter abbreviated “2-AG assay”.
The 2-AG assay was carried out in 384 well assay plates (PP, Greiner Cat #784201) in a total volume of 20 μL. Compound dilutions were made in 100% DMSO (VWR Chemicals 23500.297) in a polypropylene plate in 3-fold dilution steps to give a final concentration range in the assay from 12.5 μM to […]. 0.25 μL compound dilutions (100% DMSO) were added to 9 μL MAGL in assay buffer (50 mM TRIS (GIBCO, 15567-027), 1 mM EDTA (Fluka, 03690-100 mL), 0.01% (v/v) Tween. After shaking, the plate was incubated for 15 min at RT. To start the reaction, 10 μL 2-arachidonoylglycerol in assay buffer was added. The final concentrations in the assay was […] and 8 μM 2-arachidonoylglyerol. After shaking and 30 min incubation at RT, the reaction was quenched by the addition of 40 μL of ACN containing 4 μM of d8-arachidonic acid. The amount of arachidonic acid was traced by an online SPE system (Agilent Rapidfire) coupled to a triple quadrupole mass spectrometer (Agilent 6460). A C18 SPE cartridge (G9205A) was used in an ACN/water liquid setup. The mass spectrometer was operated in negative electrospray mode following the mass transitions 303.1→259.1 for arachidonic acid and 311.1→267.0 for d8-arachidonic acid. The activity of the compounds was calculated based on the ratio of intensities [arachidonic acid/d8-arachidonic acid].
In the case of `Cc1ccc(C)c(Oc2ccc(C3CN(C(=O)N4CC[C@@H]5OCC(=O)N[C@@H]5C4)C3)cc2)n1` [Example 30, (4aR,8aS)-6-[3-[4-[(3,6-Dimethyl-2-pyridyl)oxy]phenyl]azetidine-1-carbonyl]-4,4a,5,7,8,8a-hexahydropyrido[4,3-b][1,4]oxazin-3-one], the pIC50 was 9.15. Work on `O=C1CO[C@H]2CCN(C(=O)N3CC(c4ccc(Oc5ccc(F)cc5)cn4)C3)C[C@H]2N1` [Example 47, (4aR,8aS)-6-[3-[5-(4-Fluorophenoxy)-2-pyridyl]azetidine-1-carbonyl]-4,4a,5,7,8,8a-hexahydropyrido[4,3-b][1,4]oxazin-3-one] yielded a pIC50 of 8.85. For `O=C1CO[C@H]2CCN(C(=O)N3CC(c4ccc(Oc5cncc(Cl)c5)cc4)C3)C[C@H]2N1` [Example 9, (+)-(4aR,8aS)-6-[3-[4-[(5-Chloro-3-pyridyl)oxy]phenyl]azetidine-1-carbonyl]-4,4a,5,7,8,8a-hexahydropyrido[4,3-b][1,4]oxazin-3-one], the pIC50 was 9.05. In the case of `Cn1nccc1-c1ccc(C2CN(C(=O)N3CC[C@@H]4OCC(=O)N[C@@H]4C3)C2)cc1` [Example 46, (4aR,8aS)-6-[3-[4-(2-Methylpyrazol-3-yl)phenyl]azetidine-1-carbonyl]-4,4a,5,7,8,8a-hexahydropyrido[4,3-b][1,4]oxazin-3-one], the pIC50 was 7.76. `Cc1csc(-c2ccc(C3CN(C(=O)N4CC[C@@H]5OCC(=O)N[C@@H]5C4)C3)cc2)n1` [Example 41, (4aR,8aS)-6-[3-[4-(4-Methyl-1,3-thiazol-2-yl)phenyl]azetidine-1-carbonyl]-4,4a,5,7,8,8a-hexahydropyrido[4,3-b][1,4]oxazin-3-one] gave a pIC50 of 7.61. `O=C1CO[C@H]2CCN(C(=O)N3CC(c4ccc(Oc5cccc(Cl)c5)cc4)C3)C[C@H]2N1` [Example 20, (+)-(4aR,8aS)-6-[3-[4-(3-Chlorophenoxy)phenyl]azetidine-1-carbonyl]-4,4a,5,7,8,8a-hexahydropyrido[4,3-b][1,4]oxazin-3-one] gave a pIC50 of 10.22. Compound `O=C1CO[C@H]2CCN(C(=O)N3CC(O)(c4ccc(Oc5ccccc5)cn4)C3)C[C@H]2N1` [Example 56, (4aR,8aS)-6-[3-Hydroxy-3-(5-phenoxy-2-pyridyl)azetidine-1-carbonyl]-4,4a,5,7,8,8a-hexahydropyrido[4,3-b][1,4]oxazin-3-one] has a pIC50 of 7.81. Work on `CC(C)(C)Cn1nncc1-c1ccc(C2CN(C(=O)N3CC[C@@H]4OCC(=O)N[C@@H]4C3)C2)cc1` [Example 36, (4aR, 8aS)-6-[3-[4-[3-(2,2-Dimethylpropyl)triazol-4-yl]phenyl]azetidine-1-carbonyl]-4,4a,5,7,8,8a-hexahydropyrido[4,3-b][1,4]oxazin-3-one] yielded a pIC50 of 9.05. With `O=C1CO[C@H]2CCN(C(=O)N3CC(c4ccc(Oc5ccc(F)cc5)cc4)C3)C[C@H]2N1` [Example 16, (+)-(4aR,8aS)-6-[3-[4-(4-Fluorophenoxy)phenyl]azetidine-1-carbonyl]-4,4a,5,7,8,8a-hexahydropyrido[4,3-b][1,4]oxazin-3-one] the pIC50 was 10.30.
